Biological target: PIKFYVE (Homo sapiens, UniProt Q9Y2I7)
Assay: PIKFYVE assay (luciferase ADP-Glo kinase assay, Promega)
Format: biochemical
Experimental: The activity of Compounds 1-20 was measured using a PIKFYVE assay (luciferase ADP-Glo kinase assay available from Promega Corp. of Madison, Wis.).

Sequence of PIKFYVE (Q9Y2I7 whole entry): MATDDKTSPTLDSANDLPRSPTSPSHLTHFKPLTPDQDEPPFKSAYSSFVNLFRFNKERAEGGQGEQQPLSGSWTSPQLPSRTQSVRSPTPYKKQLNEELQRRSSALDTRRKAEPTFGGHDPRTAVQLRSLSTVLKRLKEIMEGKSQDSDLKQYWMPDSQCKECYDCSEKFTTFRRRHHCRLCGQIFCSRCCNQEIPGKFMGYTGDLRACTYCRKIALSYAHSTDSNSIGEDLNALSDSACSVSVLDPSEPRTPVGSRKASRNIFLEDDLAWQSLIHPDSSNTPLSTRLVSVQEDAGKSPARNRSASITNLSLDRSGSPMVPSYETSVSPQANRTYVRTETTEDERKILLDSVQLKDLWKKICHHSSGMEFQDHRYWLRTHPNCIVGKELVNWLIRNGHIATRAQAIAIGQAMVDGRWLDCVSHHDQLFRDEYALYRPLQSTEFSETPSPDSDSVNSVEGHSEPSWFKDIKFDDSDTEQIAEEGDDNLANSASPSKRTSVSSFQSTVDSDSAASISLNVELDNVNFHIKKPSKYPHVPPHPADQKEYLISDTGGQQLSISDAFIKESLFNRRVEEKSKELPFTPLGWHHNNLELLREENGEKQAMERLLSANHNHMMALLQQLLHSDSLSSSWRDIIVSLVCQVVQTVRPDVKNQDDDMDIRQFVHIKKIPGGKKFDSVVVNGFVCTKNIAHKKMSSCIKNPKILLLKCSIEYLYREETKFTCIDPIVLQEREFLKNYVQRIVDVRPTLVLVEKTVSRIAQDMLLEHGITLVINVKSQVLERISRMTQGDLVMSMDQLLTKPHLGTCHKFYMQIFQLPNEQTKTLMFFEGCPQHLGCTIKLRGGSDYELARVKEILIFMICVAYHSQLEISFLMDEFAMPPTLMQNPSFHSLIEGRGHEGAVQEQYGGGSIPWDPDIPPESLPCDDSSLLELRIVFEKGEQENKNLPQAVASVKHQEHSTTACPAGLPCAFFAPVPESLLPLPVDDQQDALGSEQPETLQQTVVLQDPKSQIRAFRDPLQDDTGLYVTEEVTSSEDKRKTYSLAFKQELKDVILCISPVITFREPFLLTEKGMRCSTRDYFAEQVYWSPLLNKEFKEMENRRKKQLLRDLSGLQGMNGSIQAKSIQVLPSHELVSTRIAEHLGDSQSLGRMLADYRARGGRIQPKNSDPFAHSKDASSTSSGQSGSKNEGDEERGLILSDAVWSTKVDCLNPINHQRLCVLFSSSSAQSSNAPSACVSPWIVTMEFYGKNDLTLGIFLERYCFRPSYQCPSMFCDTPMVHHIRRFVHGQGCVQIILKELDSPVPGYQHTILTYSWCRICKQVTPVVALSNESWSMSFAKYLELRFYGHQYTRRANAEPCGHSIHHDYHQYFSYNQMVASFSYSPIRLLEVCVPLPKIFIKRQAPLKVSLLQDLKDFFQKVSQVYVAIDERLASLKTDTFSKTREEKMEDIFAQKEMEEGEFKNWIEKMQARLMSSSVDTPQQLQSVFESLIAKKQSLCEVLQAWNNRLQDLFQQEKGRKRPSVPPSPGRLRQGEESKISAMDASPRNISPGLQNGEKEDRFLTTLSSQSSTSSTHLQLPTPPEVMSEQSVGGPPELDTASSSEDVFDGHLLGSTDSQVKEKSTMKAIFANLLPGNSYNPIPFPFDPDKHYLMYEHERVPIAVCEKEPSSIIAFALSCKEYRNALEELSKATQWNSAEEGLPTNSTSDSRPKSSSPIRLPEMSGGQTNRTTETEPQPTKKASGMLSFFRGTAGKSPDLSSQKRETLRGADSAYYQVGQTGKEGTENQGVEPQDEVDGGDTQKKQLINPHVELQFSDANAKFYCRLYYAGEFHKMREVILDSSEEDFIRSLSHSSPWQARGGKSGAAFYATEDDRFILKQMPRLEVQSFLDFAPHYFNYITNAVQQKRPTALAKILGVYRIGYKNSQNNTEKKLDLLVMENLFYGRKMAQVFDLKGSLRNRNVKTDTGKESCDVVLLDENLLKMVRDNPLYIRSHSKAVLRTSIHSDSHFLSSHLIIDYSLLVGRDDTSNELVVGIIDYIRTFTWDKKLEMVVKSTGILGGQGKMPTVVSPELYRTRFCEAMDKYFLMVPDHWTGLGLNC

IC50	Structure (SMILES)
101 to 1000 nM	c1ccc(-c2ccn(-c3cc(N4CC[C@H]5OCC[C@H]54)nc(OCCc4ccccn4)n3)n2)cc1 [Compound 4, (3aR,6aR)-4-(6-(3-phenyl-1H-pyrazol-1-yl)-2-(2-(pyridin-2-yl)ethoxy)pyrimidin-4-yl)hexahydro-2H-furo[3,2-b]pyrrole]
101 to 1000 nM	COc1cccc(-c2ccn(-c3cc(N4CC[C@H]5OCC[C@H]54)nc(OCCO)n3)n2)c1 [Compound 5, 2-((4-((3aR,6aR)-hexahydro-4H-furo[3,2-b]pyrrol-4-yl)-6-(3-(3-methoxyphenyl)-1H-pyrazol-1-yl)pyrimidin-2-yl)oxy)ethan-1-ol]
5 to 100 nM	Cc1cccc(-c2ccn(-c3cc(C4CCOC4)nc(OCC4CCCO4)n3)n2)c1 (stereo not shown) [Compound 17, 2-((tetrahydrofuran-2-yl)methoxy)-4-(tetrahydrofuran-3-yl)-6-(3-(m-tolyl)-1H-pyrazol-1-yl)pyrimidine]
5 to 100 nM	Cc1cccc(-c2csc(-c3cc(N4CCOCC4)nc(OCC4CCCO4)n3)n2)c1 (stereo not shown) [Compound 12, 4-(2-((tetrahydrofuran-2-yl)methoxy)-6-(4-(m-tolyl)thiazol-2-yl)pyrimidin-4-yl)morpholine]
101 to 1000 nM	COc1cccc(-c2ccn(-c3cc(N4CC[C@H]5OCC[C@H]54)nc(OCCc4ccccn4)n3)n2)c1 [Compound 16, (3aR,6aR)-4-(6-(3-(3-methoxyphenyl)-1H-pyrazol-1-yl)-2-(2-(pyridin-2-yl)ethoxy)pyrimidin-4-yl)hexahydro-2H-furo[3,2-b]pyrrole]
5 to 100 nM	Cc1cccc(-n2ccc(-c3cc(N4CCOCC4)nc(OCC4CCCO4)n3)n2)c1 (stereo not shown) [Compound 13, 4-(2-((tetrahydrofuran-2-yl)methoxy)-6-(1-(m-tolyl)-1H-pyrazol-3-yl)pyrimidin-4-yl)morpholine]
1000 to 10000 nM	c1ccc(-c2cn(-c3cc(N4CCOCC4)nc(OCCc4ccccn4)n3)cn2)cc1 [Compound 10, 4-(6-(4-phenyl-1H-imidazol-1-yl)-2-(2-(pyridin-2-yl)ethoxy)pyrimidin-4-yl)morpholine]
< 5 nM	COc1cccc(-c2ccn(-c3cc(N4CCOCC4)nc(OCCc4scnc4C)n3)n2)c1 [Compound 7, 4-(6-(3-(3-methoxyphenyl)-1H-pyrazol-1-yl)-2-(2-(4-methylthiazol-5-yl)ethoxy)pyrimidin-4-yl)morpholine]
< 5 nM	COc1cccc(-c2ccn(-c3cc(N4CCOCC4)nc(OCC4CCCO4)n3)n2)c1 (stereo not shown) [Compound 2, 4-(6-(3-(3-methoxyphenyl)-1H-pyrazol-1-yl)-2-((tetrahydrofuran-2-yl)methoxy)pyrimidin-4-yl)morpholine]
5 to 100 nM	COc1cccc(-c2ccn(-c3cc(N4CC[C@H]5OCC[C@H]54)nc(OCC4CCCO4)n3)n2)c1 (stereo partly drawn) [Compound 1, (3aR,6aR)-4-(6-(3-(3-methoxyphenyl)-1H-pyrazol-1-yl)-2-((tetrahydrofuran-2-yl)methoxy)pyrimidin-4-yl)hexahydro-2H-furo[3,2-b]pyrrole]
101 to 1000 nM	Cc1cccc(-c2csc(-c3cc(N4CC[C@H]5OCC[C@H]54)nc(OCC4CCCO4)n3)n2)c1 (stereo partly drawn) [Compound 11, (3aR,6aR)-4-(2-((tetrahydrofuran-2-yl)methoxy)-6-(4-(m-tolyl)thiazol-2-yl)pyrimidin-4-yl)hexahydro-2H-furo[3,2-b]pyrrole]
5 to 100 nM	COc1cccc(-c2ccn(-c3cc(N4CC[C@H]5OCC[C@H]54)nc(OCCc4scnc4C)n3)n2)c1 [Compound 6, (3aR,6aR)-4-(6-(3-(3-methoxyphenyl)-1H-pyrazol-1-yl)-2-(2-(4-methylthiazol-5-yl)ethoxy)pyrimidin-4-yl)hexahydro-2H-furo[3,2-b]pyrrole]
5 to 100 nM	Cc1cccc(-c2ccn(-c3cc(N4CCOCC4CO)nc(CCC4CCCO4)n3)n2)c1 (stereo not shown) [Compound 20, (4-(2-(2-(tetrahydrofuran-2-yl)ethyl)-6-(3-(m-tolyl)-1H-pyrazol-1-yl)pyrimidin-4-yl)morpholin-3-yl)methanol]
5 to 100 nM	Cc1cccc(-c2ccn(-c3cc(N4CC[C@H]5OCC[C@H]54)nc(CCc4ncccn4)n3)n2)c1 [Compound 19]
1000 to 10000 nM	COC1CCN(c2cc(-n3ccc(-c4cccc(C)c4)n3)nc(OCC3CCCO3)n2)C1 (stereo not shown) [Compound 15, 4-(3-methoxypyrrolidin-1-yl)-2-((tetrahydrofuran-2-yl)methoxy)-6-(3-(m-tolyl)-1H-pyrazol-1-yl)pyrimidine]
5 to 100 nM	COc1cccc(-c2ccn(-c3cc(N4CC[C@H]5OCC[C@H]54)nc(OCCC(O)CO)n3)n2)c1 (stereo partly drawn) [Compound 8, 4-((4-((3aR,6aR)-hexahydro-4H-furo[3,2-b]pyrrol-4-yl)-6-(3-(3-methoxyphenyl)-1H-pyrazol-1-yl)pyrimidin-2-yl)oxy)butane-1,2-diol]
< 5 nM	COc1cccc(-c2ccn(-c3cc(N4CCOCC4)nc(OCCC(O)CO)n3)n2)c1 (stereo not shown) [Compound 9, 4-((4-(3-(3-methoxyphenyl)-1H-pyrazol-1-yl)-6-morpholinopyrimidin-2-yl)oxy)butane-1,2-diol]
< 5 nM	COc1cccc(-c2ccn(-c3cc(N4CCOCC4)nc(OCCC4CCOCC4)n3)n2)c1 [Compound 3, 4-(6-(3-(3-methoxyphenyl)-1H-pyrazol-1-yl)-2-(2-(tetrahydro-2H-pyran-4-yl)ethoxy)pyrimidin-4-yl)morpholine]
101 to 1000 nM	Cc1cccc(-c2ccn(-c3cc(N4CCCOCC4)nc(OCC4CCCO4)n3)n2)c1 (stereo not shown) [Compound 14, 4-(2-((tetrahydrofuran-2-yl)methoxy)-6-(3-(m-tolyl)-1H-pyrazol-1-yl)pyrimidin-4-yl)-1,4-oxazepane]

Reference: patent US20200199136A1, “PIKFYVE KINASE INHIBITORS” (ACURASTEM INC., priority 2017, published 2020)
